# Patent US20250304535A1, “KAT6 Inhibitors” (BeiGene Switzerland GmbH, priority 2024, published 2025)
# Assays:
# [1] = tested on: histone H3K23 acetylation in U-2 OS cells; experiment: Histone H3 lysine 23 acetylation assay in U-2 OS cells (high content analysis); type: cell-based; conditions: 24 hrs exposure, H3K23ac level
# In short: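 U-2 OS cells seeded overnight, then exposed 24 h to a 9-point compound dilution series; 0.1% DMSO medium as blank. Fixed, permeabilised, stained with anti-H3K23ac plus Alexa Fluor 647 secondary and DAPI; nuclear H3K23ac intensity read by high-content imaging. Inhibition = mean per-well cell intensity relative to on-plate blanks.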
# [2] = molecular target: Recombinant human KAT6A protein (497-780) (Homo sapiens (Human), UniProt Q92794); experiment: KAT6A biochemical TR-FRET assay; conditions: histone H4 peptide 2000 nM, AcCoA 300 nM, enzyme 5 nM
# Chain of Recombinant human KAT6A protein (497-780) (Q92794 497-780): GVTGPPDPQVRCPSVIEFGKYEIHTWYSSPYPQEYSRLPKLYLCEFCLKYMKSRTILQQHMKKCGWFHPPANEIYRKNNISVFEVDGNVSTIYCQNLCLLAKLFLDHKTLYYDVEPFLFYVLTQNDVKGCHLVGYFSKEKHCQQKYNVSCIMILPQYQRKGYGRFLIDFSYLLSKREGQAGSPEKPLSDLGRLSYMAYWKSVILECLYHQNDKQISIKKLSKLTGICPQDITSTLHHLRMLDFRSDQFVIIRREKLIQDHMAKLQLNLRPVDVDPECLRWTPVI
# [3] = molecular target: Recombinant human KAT6B protein (657-1069) (Homo sapiens (Human), UniProt Q8WYB5); experiment: KAT6B biochemical TR-FRET assay; conditions: histone H4 peptide 1000 nM, AcCoA 100 nM, enzyme 5 nM
# Chain of Recombinant human KAT6B protein (657-1069) (Q8WYB5 657-1069): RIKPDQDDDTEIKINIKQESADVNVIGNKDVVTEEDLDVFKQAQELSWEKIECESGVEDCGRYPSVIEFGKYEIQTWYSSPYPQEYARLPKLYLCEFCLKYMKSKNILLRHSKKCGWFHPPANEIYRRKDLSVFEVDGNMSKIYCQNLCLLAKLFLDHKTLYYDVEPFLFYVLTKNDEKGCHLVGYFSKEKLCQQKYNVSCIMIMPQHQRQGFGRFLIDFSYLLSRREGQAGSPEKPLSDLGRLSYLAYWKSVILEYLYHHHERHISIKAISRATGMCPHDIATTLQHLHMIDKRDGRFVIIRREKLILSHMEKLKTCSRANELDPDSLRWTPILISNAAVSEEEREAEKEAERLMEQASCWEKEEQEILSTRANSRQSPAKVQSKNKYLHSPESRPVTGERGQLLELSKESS
"IC50 ([1]; Homo sapiens, U2OS) [nM]",IC50 [2] [nM],IC50 [3] [nM],IC50 [1] [nM],Compound
≤ 10,≤ 5,≤ 5,–,"COc1ccc2c(c1S(=O)(=O)NC(=O)c1ccc(Cn3cccn3)c(OC)n1)OCCC2(C)C [Example C39, 5-((1H-pyrazol-1-yl)methyl)-6-methoxy-N-((7-methoxy-4,4-dimethylchroman-8-yl)sulfonyl)picolinamide]"
≤ 10,≤ 5,≤ 5,–,"CCc1cc(C(=O)NS(=O)(=O)c2c(OC)ccc3c2OC(C)(C)C3)ccc1Cn1cccn1 [Example C52, 4-((1H-pyrazol-1-yl)methyl)-3-ethyl-N-((6-methoxy-2,2-dimethyl-2,3-dihydrobenzofuran-7-yl)sulfonyl)benzamide]"
≤ 10,≤ 5,≤ 5,–,"COc1ccc(C(C)(C)C)cc1S(=O)(=O)NC(=O)c1ccc(Cc2ccccn2)c(C)n1 [Example C35, N-((5-(tert-butyl)-2-methoxyphenyl)sulfonyl)-6-methyl-5-(pyridin-2-ylmethyl)picolinamide]"
≤ 10,≤ 5,≤ 5,–,"COc1ccc(C(C)(C)C(F)(F)F)nc1S(=O)(=O)NC(=O)c1ccc(Cn2cccn2)c(OC)n1 [Example C54, 5-((1H-pyrazol-1-yl)methyl)-6-methoxy-N-((3-methoxy-6-(1,1,1-trifluoro-2-methylpropan-2-yl)pyridin-2-yl)sulfonyl)picolinamide]"
≤ 10,≤ 5,≤ 5,–,"COc1ccc(C2COCCN2C)cc1S(=O)(=O)NC(=O)c1ccc(Cn2cccn2)c(OC)n1 (stereo not drawn) [Example C73, 5-((1H-pyrazol-1-yl)methyl)-6-methoxy-N-((2-methoxy-5-(4-methylmorpholin-3-yl)phenyl)sulfonyl) picolinamide]"
≤ 10,≤ 5,≤ 5,–,"COc1ccc(N2CC3CCC(C2)O3)cc1S(=O)(=O)NC(=O)c1ccc(Cn2cccn2)c(OC)n1 [Example C62, 5-((1H-pyrazol-1-yl)methyl)-N-((5-(8-oxa-3-azabicyclo[3.2.1]octan-3-yl)-2-methoxyphenyl)sulfonyl)-6-methoxy-picolinamide]"
≤ 10,≤ 5,≤ 5,–,"COc1ccc2c(c1S(=O)(=O)NC(=O)c1ccc(Cn3cccn3)c(OC)n1)OCC2 [Example C58, 5-((1H-pyrazol-1-yl)methyl)-6-methoxy-N-((6-methoxy-2,3-dihydrobenzofuran-7-yl)sulfonyl)picolinamide]"
≤ 10,≤ 5,≤ 5,–,"COc1ccc(C2(C(F)(F)F)CC2)cc1S(=O)(=O)NC(=O)c1ccc(Cn2cccn2)c(OC)n1 [Example C59, 5-((1H-pyrazol-1-yl)methyl)-6-methoxy-N-((2-methoxy-5-(1-(trifluoromethyl)cyclopropyl)phenyl)sulfonyl)picolinamide]"
≤ 10,≤ 5,≤ 5,–,"COc1ccc(C2(C)COC2)cc1S(=O)(=O)NC(=O)c1ccc(Cn2cccn2)c(OC)n1 [Example C75, 5-((1H-pyrazol-1-yl)methyl)-6-methoxy-N-((2-methoxy-5-(3-methyloxetan-3-yl)phenyl)sulfonyl) picolinamide]"
≤ 10,5 to 50,≤ 5,–,"COc1ccc(C23COC(C2)C3)cc1S(=O)(=O)NC(=O)c1ccc(Cn2cccn2)c(OC)n1 [Example C77, 5-((1H-pyrazol-1-yl)methyl)-N-((5-(2-oxabicyclo[2.1.1]hexan-4-yl)-2-methoxyphenyl)sulfonyl)-6-methoxypicolinamide]"
≤ 10,≤ 5,≤ 5,–,"[2H]C([2H])([2H])Oc1ccc(C(C)(C)C)nc1S(=O)(=O)NC(=O)c1ccc(Cn2cccn2)c(OC)n1 [Example C66, 5-((1H-pyrazol-1-yl)methyl)-N-((6-(tert-butyl)-3-(methoxy-d3)pyridin-2-yl)sulfonyl)-6-methoxy-picolinamide]"
≤ 10,≤ 5,≤ 5,–,"COc1cc(C(=O)NS(=O)(=O)c2cc(C3(OC)CC3)ccc2OC)ccc1Cn1cccn1 [Example C28, 4-((1H-pyrazol-1-yl)methyl)-3-methoxy-N-((2-methoxy-5-(1-methoxy-cyclopropyl)phenyl)sulfonyl)benzamide]"
–,≤ 5,≤ 5,≤ 10,"COc1ccc2c(c1S(=O)(=O)NC(=O)c1ccc(Cn3cccn3)c(OC)n1)OC1CC2C1 [Example C78, 5-((1H-pyrazol-1-yl)methyl)-6-methoxy-N-((7-methoxy-3,4-dihydro-2H-2,4-methanochroman-8-yl)sulfonyl)picolinamide]"
≤ 10,≤ 5,≤ 5,–,"COc1ccc(C(C)(C)C)nc1S(=O)(=O)NC(=O)c1ccc(Cn2cccn2)c(Br)c1 [Example C26, 4-((1H-pyrazol-1-yl)methyl)-3-bromo-N-((6-(tert-butyl)-3-methoxypyridin-2-yl)sulfonyl)benzamide]"
≤ 10,≤ 5,≤ 5,–,"COc1cc(C(=O)NS(=O)(=O)c2nc(C(C)(C)C)ccc2OC)ccc1Cc1ccccn1 [Example C32, N-((6-(tert-butyl)-3-methoxypyridin-2-yl)sulfonyl)-3-methoxy-4-(pyridin-2-ylmethyl)benzamide]"
≤ 10,≤ 5,≤ 5,–,"COc1ccc(C(C)(C)C)cc1S(=O)(=O)NC(=O)c1ccc(Cn2cccn2)c(-c2ccco2)c1 [Example C5, 4-((1H-pyrazol-1-yl)methyl)-N-((5-(tert-butyl)-2-methoxyphenyl)sulfonyl)-3-(furan-2-yl)benzamide]"
≤ 10,≤ 5,≤ 5,–,"COc1ccc(C2(OC)COC2)cc1S(=O)(=O)NC(=O)c1ccc(Cn2cccn2)c(OC)n1 [Example C67, 5-((1H-pyrazol-1-yl)methyl)-6-methoxy-N-((2-methoxy-5-(3-methoxyoxetan-3-yl)phenyl)sulfonyl) picolinamide]"
10 to 100,5 to 50,5 to 50,–,"C#Cc1cc(C(=O)NS(=O)(=O)c2cc3c(cc2OC)CCC3)ccc1Cn1cccn1 [Example C9, 4-((1H-pyrazol-1-yl)methyl)-3-ethynyl-N-((6-methoxy-2,3-dihydro-1H-inden-5-yl)sulfonyl)benzamide]"
≤ 10,≤ 5,≤ 5,–,"COc1ccc(C(C)(C)C)cc1S(=O)(=O)NC(=O)c1ccc(Cn2cccn2)c(C2CCO2)c1 (stereo not drawn) [Example C18, 4-((1H-pyrazol-1-yl)methyl)-N-((5-(tert-butyl)-2-methoxyphenyl)sulfonyl)-3-(oxetan-2-yl)benzamide]"
≤ 10,≤ 5,≤ 5,–,"COc1ccc(C(C)(C)C)nc1S(=O)(=O)NC(=O)c1ccc(Cn2cccn2)c(Cl)c1 [Example C22, 4-((1H-pyrazol-1-yl)methyl)-N-((6-(tert-butyl)-3-methoxypyridin-2-yl)sulfonyl)-3-chlorobenzamide]"
≤ 10,≤ 5,≤ 5,–,"COc1ccc(C(C)(C)C)nc1S(=O)(=O)NC(=O)c1ccc(Cn2cccn2)c(C(F)(F)F)c1 [Example C25, 4-((1H-pyrazol-1-yl)methyl)-N-((6-(tert-butyl)-3-methoxypyridin-2-yl)sulfonyl)-3-(trifluoromethyl)benzamide]"
≤ 10,≤ 5,≤ 5,–,"COc1ccc(C(C)(C)C)nc1S(=O)(=O)NC(=O)c1ccc(Cn2cccn2)c(C2CCC2)c1 [Example C21, 4-((1H-pyrazol-1-yl)methyl)-N-((6-(tert-butyl)-3-methoxypyridin-2-yl)sulfonyl)-3-cyclobutyl-benzamide]"
≤ 10,≤ 5,≤ 5,–,"COc1ccc2c(c1S(=O)(=O)NC(=O)c1ccc(Cn3cccn3)c(OC)n1)OCC2(C)C [Example C43, 5-((1H-pyrazol-1-yl)methyl)-6-methoxy-N-((6-methoxy-3,3-dimethyl-2,3-dihydrobenzofuran-7-yl)sulfonyl)picolinamide]"
≤ 10,≤ 5,≤ 5,–,"COc1ccc(C(C)(C)C)nc1S(=O)(=O)NC(=O)c1ccc(Cn2cccn2)c(N2CCC2)c1 [Example C20, 4-((1H-pyrazol-1-yl)methyl)-3-(azetidin-1-yl)-N-((6-(tert-butyl)-3-methoxypyridin-2-yl)sulfonyl)benzamide]"
≤ 10,≤ 5,≤ 5,–,"COc1ccc(C(C)(C)C)nc1S(=O)(=O)NC(=O)c1ccc(Cn2ccc(N)n2)c(OC)n1 [Example C37, 5-((3-amino-1H-pyrazol-1-yl)methyl)-N-((6-(tert-butyl)-3-methoxypyridin-2-yl)sulfonyl)-6-methoxypicolinamide]"
≤ 10,≤ 5,≤ 5,–,"COc1cc(C(=O)NS(=O)(=O)c2c(OC)ccc3c2OC(C)(C)C3)ccc1Cn1cccn1 [Example C45, 4-((1H-pyrazol-1-yl)methyl)-3-methoxy-N-((6-methoxy-2,2-dimethyl-2,3-dihydrobenzofuran-7-yl)sulfonyl)benzamide]"
≤ 10,≤ 5,≤ 5,–,"COc1ccc(C(C)(C)C)cc1S(=O)(=O)NC(=O)c1ccc(Cc2ccccn2)c(C)c1 [Example C29, N-((5-(tert-butyl)-2-methoxyphenyl)sulfonyl)-3-methyl-4-(pyridin-2-ylmethyl)benzamide]"
10 to 100,5 to 50,5 to 50,–,"COCc1cc(C(=O)NS(=O)(=O)c2cc(C(C)(C)C)ccc2OC)ccc1Cn1cccn1 [Example C12, 4-((1H-pyrazol-1-yl)methyl)-N-((5-(tert-butyl)-2-methoxyphenyl)sulfonyl)-3-(methoxymethyl)benzamide]"
